Values quoted from earlier work, collected in US12569487B2, “Treatment of hidradenitis with jak inhibitors” (PFIZER INC., priority 2019, dated 2026).
Like-named read-outs stand apart in the source and are kept apart here.

Tested on: patients with moderate to severe HS
Details: for Clinical response rate (hidradenitis suppurativa clinical response, HiSCR): adalimumab weekly

adalimumab
Clinical response rate (hidradenitis suppurativa clinical response, HiSCR) (PIONEER I, Week 12, placebo 26.0%, P=0.003, oral antibiotics stopped at least 28 days before baseline): 41.8% | Clinical response rate (hidradenitis suppurativa clinical response, HiSCR) (PIONEER II, Week 12, placebo 27.6%, P<0.001, stable tetracycline-class antibiotics allowed): 58.9% | Rank-ordered secondary outcomes (lesions, pain, modified Sartorius score) versus placebo (Week 12, in PIONEER II only): significantly greater improvement | Patients with moderate to severe HS who did not respond to treatment (summary of the PIONEER trials): ~40%
